The values that follow come from patent publication US10688087B2, “Pharmaceutical compositions and therapeutic methods employing a combination of a manganese complex compound and a non-manganese complex form of the compound” (PLEDPHARMA AB, priority 2009, dated 2020).

For data set [1] the following is noted: rats, i.v.; for effect on 0-24 h Zn excretion: 10 μmol/kg MnDPDP alone, with 20 μmol/kg b.w. DPDP, or 10 μmol/kg b.w. DPDP, n=2.
Method: 10 male Wistar rats (approximately 250 g) were injected intravenously, via one of the tail veins, with either 0, 0.125, 0.250, 0.500 or 0.750 ml of a 10 mM DPDP formulation, corresponding to 0, 5, 10, 20 and 30 μmol/kg b.w. […] After injection, the rats were immediately placed in metabolic cages for urine collection over a period of 0-24 hours. The urine samples were then stored at −80° C. until Zn and Mn analyses. Before analyses, the samples were thawed and extensively shaken to obtain homogenous samples. A five ml aliquot was taken from each sample and 5 ml concentrated nitric acid was added. The samples were then resolved in a microwave oven and thereafter diluted with distilled water to a final volume of 50 ml. The zinc (Zn) and manganese (Mn) content of each sample were analyzed by ICP-MS. Results are presented as total 0-24 h urine Zn and Mn content (expressed as μmol/kg b.w.±S.E.M.).
For data set [2] the following is noted: rat, in vivo, ip.
Method: Twenty-four hours later, the rats were killed and the brains were dissected out and stored at −80° C. until Mn analysis. […] Before analysis, each brain was resolved in 5 ml concentrated nitric acid plus 3 ml distilled water in a microwave oven, and thereafter diluted with distilled water to a final volume of 50 ml. The Mn and Zn content of each sample was analyzed by ICP-MS. Results are expressed as μg/g brain wet weight±S.E.M and percentage increase in Mn brain content. […] A p-value lower than 0.05 was considered as a statistically significant difference.
Data set [3] concerns white blood cells. The conditions noted are these: mice, 10 mg/kg b.w. MnDPDP (Alexandre et al., 2006); cited from earlier work.
A short description of data set [4]: Literature pharmacokinetics of i.v. MnDPDP (Toft et al., 1997): manganese release, urine Mn and Zn, metabolism. In kind it is in vivo. Particulars: humans, 10 μmol/kg b.w., rough recalculation of data of Toft et al.
For data set [5] the following is noted: i.v., 10 μmol/kg b.w.; humans (Toft et al.) and rats (Hustvedt et al.); cited from earlier work.
For data set [6] the following is noted: rats, i.v.
Method: After injection, the rats were immediately placed in metabolic cages for urine collection over a period of 0-24 hours. To obtain basal content of manganese (Mn) in urine, two additional (control) rats were placed in metabolic cages for urine collection over the same period of time. The urine samples were then stored at −80° C. until Mn analysis. Before analysis, the samples were thawed and extensively shaken to obtain homogenous samples. A five ml aliquot was taken from each sample and 5 ml concentrated nitric acid was added. The samples were then resolved in a microwave oven and thereafter diluted with distilled water to a final volume of 50 ml. The Mn content of each sample was analyzed by ICP-MS (Inductively Coupled Plasma Mass Spectrometry). […] This sample was treated in an identical manner to that of the urine samples and analyzed for its Mn content. Results are presented as total 0-24 h urine Mn content (expressed as μmol/kg±S.E.M.) and as percentage (±S.E.M.) of the injected dose. The statistical difference between animals receiving MnDPDP alone and animals receiving MnDPDP and DPDP, with respect to excretion of manganese into the urine, was tested by an unpaired Student's t-test. A p-value lower than 0.05 was considered as a statistically significant difference.
In data set [7] the test system is white blood cells. Briefly: Paclitaxel-induced myelosuppression (leucopenia) in mice, blood cell counts (Example 5). The format is in vivo, BALB/c female mice. Particulars: i.p., paclitaxel 20 mg/kg b.w. on days 0, 2, 4, blood day 10. As to the method: To test the therapeutic efficacy, initial experiments were conducted in BALB/c female mice (15-20 g), as described by Alexandre et al., JNCI 2006; 98:236-244).
Five mice were treated in each group. Paclitaxel was administered on days 0, 2, and 4. […] Ten days after the first injection the mice were anesthetized and blood samples were withdrawn by heart puncture into EDTA-tubes and blood cell counting (including white blood cell count (WBC); absolute neutrophil (ANC), monocyte and lymphocyte count) was conducted on a CELL-DYN Sapphire analyzer, after the blood samples had been diluted 1:1. Some samples had to be discarded because of clotting but all groups included at least blood from 3 animals.

Each structure is given as a SMILES string.

`Cc1ncc(COP(=O)(O)O)c(CN(CCN(CC(=O)O)Cc2c(COP(=O)(O)O)cnc(C)c2O)CC(=O)O)c1O` [DPDP, N,N′-bis-(pyridoxal-5-phosphate)-ethylenediamine-N,N′-diacetic acid]: the “effect of increasing doses of DPDP on 0-24 h Mn excretion” value in data set [1] (0-30 μmol/kg b.w. DPDP) is recorded as “just minor effects”. Further, the “effect on 0-24 h Zn excretion” value in data set [1] is “doubles the zinc excretion”. Further, the “0-24 h Zn excretion (saturation level)” value in data set [1] (at a dose of 10 μmol/kg b.w. DPDP) is “around 4 μmol/kg”.

On to `Cc1ncc(COP(=O)(O)O)c(CN(CCN(CC(=O)O)Cc2c(COP(=O)(O)O)cnc(C)c2O)CC(=O)O)c1O.[Mn]` [MnDPDP, Manganese N,N′-bis-(pyridoxal-5-phosphate)-ethylenediamine-N,N′-diacetic acid], for which, in data set [2], the Zn brain content entry is on record as “identical” and the “percentage increase in brain Mn” value was 23.5%. In data set [3], the “protection against paclitaxel-induced leucopenia” value is “effectively protect”. Moreover, the renal zinc excretion result in data set [4] is on record as “approximately 3 μmol/kg b.w”. The “manganese originating from the chelator that comes out in the urine” value in data set [5] is ≤ 20%. Further, the “effect on 0-24 h Zn excretion” value in data set [1] is given as “relatively small effect”. The “amount of zinc in the urine up to 24 hours” value in data set [1] (10 μmol/kg b.w. MnDPDP) is “about 2 μmol/kg b.w”. Also, the “amount of manganese released from the complex” value in data set [6] (as exemplified by Example 1) came out at 85%. For the same compound, the “Mn excretion in urine during 0-24 h as percentage of the injected dose” value in data set [6] (0.25 ml 10 mM MnDPDP ± 0.5 ml 10 mM DPDP, mean±S.E.M., n=7) is reported as 15.7±1.1%.

As to `CC(=O)O[C@H]1C(=O)[C@@]2(C)[C@H]([C@H](OC(=O)c3ccccc3)[C@]3(O)C[C@H](OC(=O)[C@H](O)[C@@H](NC(=O)c4ccccc4)c4ccccc4)C(C)=C1C3(C)C)[C@]1(OC(C)=O)CO[C@@H]1C[C@@H]2O` [Paclitaxel, paclitaxel], the “reduction of the various white blood cells” value in data set [7] is ~50%.
